ChEMBL document CHEMBL1201862, “PubChem BioAssay data set” (2004)
The source made the active and inactive calls.

Tests used:
[1] = target: 72 kDa type IV collagenase (Homo sapiens, UniProt P08253); assay: Dose Response validation of uHTS RPN11 inhibitor hits using a MMP-2 Fluorescence assay.; format: functional
[2] = target: Prothrombin (Bos taurus, UniProt P00735); assay: thrombin protease inhibitors – biochemical, fluorescence polarization, uHTS hits, dose response (AID 602369); format: functional
[3] = target: 26S proteasome non-ATPase regulatory subunit 14 (Homo sapiens, UniProt O00487); assay: inhibition of proteasome subunit RPN11 – biochemical, fluorescence polarization, uHTS hits, confirmation (AID 602368); format: functional
[4] = target: Protein Wnt-3a (Mus musculus, UniProt P27467); assay: antagonism of Wnt3a pathway luciferase reporter – Wnt-LIGHT cells, luminescence, selectivity assay for Gli-SUFU antagonist project, dose response (AID 651570); format: functional; details: read-out: IC50_Mean;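 also: Wnt-LIGHT reporter cells stimulated with conditioned medium from Wnt3a-producing cells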
[5] = target: T1, Long-chain-fatty-acid--AMP ligase FadD28 (Mycobacterium tuberculosis, UniProt P9WQ59); assay: Fluorescence polarization aasay to screen for inhibitors that compete for the binding of FadD28 to a bisubstrate Measured in Biochemical System Using Plate Reader - 2147-01_Inhibitor_Dose_CherryPick_Activity.; format: functional, Mycobacterium tuberculosis H37Rv
T1 sequence (P9WQ59 whole entry): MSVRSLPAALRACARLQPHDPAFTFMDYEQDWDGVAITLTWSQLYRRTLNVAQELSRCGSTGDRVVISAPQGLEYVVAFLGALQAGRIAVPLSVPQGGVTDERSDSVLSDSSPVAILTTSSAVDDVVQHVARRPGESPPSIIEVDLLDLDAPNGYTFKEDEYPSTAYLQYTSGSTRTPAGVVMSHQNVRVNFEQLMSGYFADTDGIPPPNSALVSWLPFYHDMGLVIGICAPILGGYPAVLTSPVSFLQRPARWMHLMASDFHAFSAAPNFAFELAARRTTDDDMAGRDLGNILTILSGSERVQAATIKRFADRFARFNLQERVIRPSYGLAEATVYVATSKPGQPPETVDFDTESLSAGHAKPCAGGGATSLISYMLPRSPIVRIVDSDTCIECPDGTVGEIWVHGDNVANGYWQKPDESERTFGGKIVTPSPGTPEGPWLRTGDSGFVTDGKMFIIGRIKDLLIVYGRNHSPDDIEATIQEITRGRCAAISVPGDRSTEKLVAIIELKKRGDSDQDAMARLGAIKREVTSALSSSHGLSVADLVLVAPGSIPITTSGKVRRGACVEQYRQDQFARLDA

[6] = non-specific 3'UTR reporter inhibition in Clone20-Shn3RL – cell-based, Renilla luciferase, cherry-picked, counter-screen for Shn3 inhibitor project, dose response (AID 624133); format: functional
[7] = HIV-1 AD8 envelope cell-cell fusion blockers – cherry-pick, dose response (AID 652062); format: functional, cell-based;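 also: luciferase signal from cell-cell fusion driven by HIV-1 clade B AD8 Env; potency is for inhibitors of fusion seen as a drop in luminescence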
[8] = reduction of Shn3 3'UTR-driven luciferase in osteoblasts – cell-based, Clone20 osteoblasts, firefly luciferase, cherry-picked, dose response (AID 624132); format: functional;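 also: firefly luciferase luminescence from reporter carrying the Shn3 3'UTR in osteoblasts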
[9] = loss of viability in HepG2 cells – cell-based, CellTiter-Glo, cherry-picked, cytotoxicity control for Shn3 inhibitor project, dose response (AID 624134); format: functional
[10] = MIN6 cell viability loss – mouse insulinoma, cytotoxicity control, dose response (AID 2122); format: functional;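 also: confirmatory high-throughput counterscreen run to flag cytotoxic compounds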
[11] = decrease of insulin promoter-GFP reporter – imaging, high-content screening, mouse beta cells (AID 1628); format: functional; details: MIN6
[12] = target: T2, Corticotropin-releasing factor receptor 2/Corticotropin-releasing factor-binding protein (Homo sapiens, UniProt P24387+Q13324); assay: activators of CRF receptor 2 with binding protein – uHTS hits, confirmation (AID 602473); format: functional; details: read-out: EC50_Mean
T2 sequence (Q13324 whole entry): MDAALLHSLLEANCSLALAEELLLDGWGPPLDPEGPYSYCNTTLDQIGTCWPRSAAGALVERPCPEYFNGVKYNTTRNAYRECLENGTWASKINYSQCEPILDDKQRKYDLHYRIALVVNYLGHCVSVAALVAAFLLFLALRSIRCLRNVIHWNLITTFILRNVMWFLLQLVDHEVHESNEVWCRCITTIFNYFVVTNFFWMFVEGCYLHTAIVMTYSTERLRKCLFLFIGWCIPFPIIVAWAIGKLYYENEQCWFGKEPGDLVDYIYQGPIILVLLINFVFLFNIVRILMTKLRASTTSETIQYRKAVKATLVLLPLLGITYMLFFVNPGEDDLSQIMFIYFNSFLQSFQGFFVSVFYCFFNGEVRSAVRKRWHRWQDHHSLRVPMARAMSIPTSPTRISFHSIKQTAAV
T2 sequence (P24387 whole entry): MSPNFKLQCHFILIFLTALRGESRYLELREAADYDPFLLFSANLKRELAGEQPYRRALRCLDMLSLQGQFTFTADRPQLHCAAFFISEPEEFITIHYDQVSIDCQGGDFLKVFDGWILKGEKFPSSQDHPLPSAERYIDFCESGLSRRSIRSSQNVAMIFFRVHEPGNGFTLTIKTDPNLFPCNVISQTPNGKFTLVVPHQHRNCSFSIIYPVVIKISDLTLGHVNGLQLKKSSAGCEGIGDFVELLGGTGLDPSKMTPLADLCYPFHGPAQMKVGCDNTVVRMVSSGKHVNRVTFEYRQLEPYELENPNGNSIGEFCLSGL

[13] = viability loss in HeLa cells – cytotoxicity control for MgcRacGAP inhibitor project, dose response (AID 624300); format: functional
[14] = target: T3, Rac GTPase-activating protein 1 (Homo sapiens, UniProt Q9H0H5); assay: blockers of MgcRacGAP-driven Rac1 GTP hydrolysis – biochemical, ADP Hunter fluorescence, primary and confirmatory, confirmation (AID 624330); format: functional
T3 sequence (Q9H0H5 whole entry): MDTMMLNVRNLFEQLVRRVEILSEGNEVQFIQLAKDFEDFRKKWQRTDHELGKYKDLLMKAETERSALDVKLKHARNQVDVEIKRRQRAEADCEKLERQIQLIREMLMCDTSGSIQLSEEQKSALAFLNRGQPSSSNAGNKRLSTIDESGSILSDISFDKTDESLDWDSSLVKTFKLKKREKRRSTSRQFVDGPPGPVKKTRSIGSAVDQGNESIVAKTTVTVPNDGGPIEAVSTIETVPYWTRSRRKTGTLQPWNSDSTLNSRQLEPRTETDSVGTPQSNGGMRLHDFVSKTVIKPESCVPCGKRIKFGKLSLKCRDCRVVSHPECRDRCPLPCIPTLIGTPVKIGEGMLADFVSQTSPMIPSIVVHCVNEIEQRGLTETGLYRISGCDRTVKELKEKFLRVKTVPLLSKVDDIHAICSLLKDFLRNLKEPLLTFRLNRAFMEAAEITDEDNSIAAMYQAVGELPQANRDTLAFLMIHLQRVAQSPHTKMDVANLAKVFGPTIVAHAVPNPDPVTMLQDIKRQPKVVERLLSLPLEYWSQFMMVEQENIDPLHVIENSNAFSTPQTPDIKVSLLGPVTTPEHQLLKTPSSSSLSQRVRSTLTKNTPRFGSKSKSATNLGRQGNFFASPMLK

[15] = target: T4, Cysteine protease ATG4B (Homo sapiens, UniProt Q9Y4P1); format: functional;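 also: Fluorescence-based dose-response confirmation assay measuring inhibition of ATG4B activity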
T4 sequence (Q9Y4P1 whole entry): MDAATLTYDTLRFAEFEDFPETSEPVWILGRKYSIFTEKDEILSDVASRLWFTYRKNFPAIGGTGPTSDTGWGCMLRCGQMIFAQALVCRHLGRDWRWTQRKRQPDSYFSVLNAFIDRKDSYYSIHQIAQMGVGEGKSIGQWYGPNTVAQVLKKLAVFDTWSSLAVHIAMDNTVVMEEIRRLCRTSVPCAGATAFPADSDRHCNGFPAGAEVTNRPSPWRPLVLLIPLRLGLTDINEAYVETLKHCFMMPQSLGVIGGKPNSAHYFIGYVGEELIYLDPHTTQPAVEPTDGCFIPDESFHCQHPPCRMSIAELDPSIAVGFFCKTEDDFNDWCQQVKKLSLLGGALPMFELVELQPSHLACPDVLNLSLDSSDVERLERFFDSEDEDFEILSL

[16] = target: Phospholipase A2 (Homo sapiens, UniProt P04054); format: functional;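 also: confirmatory dose-response counterscreen on phospholipase A2, testing hits that came from an ultra-high-throughput screen for ATG4B inhibitors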
Phospholipase A2, sequence (P04054 whole entry): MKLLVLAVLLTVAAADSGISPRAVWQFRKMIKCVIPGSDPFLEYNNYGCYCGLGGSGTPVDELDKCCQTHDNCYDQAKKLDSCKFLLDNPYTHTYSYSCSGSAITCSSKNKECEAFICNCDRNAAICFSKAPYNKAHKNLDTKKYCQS

Protein Wnt-3a, sequence (P27467 whole entry): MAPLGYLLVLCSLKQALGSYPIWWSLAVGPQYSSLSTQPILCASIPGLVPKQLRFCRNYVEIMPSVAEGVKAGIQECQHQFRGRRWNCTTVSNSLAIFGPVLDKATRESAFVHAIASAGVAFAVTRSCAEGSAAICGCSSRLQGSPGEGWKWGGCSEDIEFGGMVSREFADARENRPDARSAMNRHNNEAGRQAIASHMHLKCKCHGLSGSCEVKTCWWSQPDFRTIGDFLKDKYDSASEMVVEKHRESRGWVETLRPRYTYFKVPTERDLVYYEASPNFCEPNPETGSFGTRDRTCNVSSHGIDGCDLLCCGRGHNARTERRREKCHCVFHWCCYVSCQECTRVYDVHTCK
26S proteasome non-ATPase regulatory subunit 14, sequence (O00487 whole entry): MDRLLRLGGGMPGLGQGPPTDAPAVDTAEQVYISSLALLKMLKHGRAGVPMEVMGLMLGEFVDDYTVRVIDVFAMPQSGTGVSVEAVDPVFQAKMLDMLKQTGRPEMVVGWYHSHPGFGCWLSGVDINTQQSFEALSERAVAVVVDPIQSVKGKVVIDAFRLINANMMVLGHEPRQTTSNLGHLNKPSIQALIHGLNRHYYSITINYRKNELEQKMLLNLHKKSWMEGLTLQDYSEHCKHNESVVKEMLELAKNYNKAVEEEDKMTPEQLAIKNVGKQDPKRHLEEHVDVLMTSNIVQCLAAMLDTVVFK
72 kDa type IV collagenase, sequence (P08253 whole entry): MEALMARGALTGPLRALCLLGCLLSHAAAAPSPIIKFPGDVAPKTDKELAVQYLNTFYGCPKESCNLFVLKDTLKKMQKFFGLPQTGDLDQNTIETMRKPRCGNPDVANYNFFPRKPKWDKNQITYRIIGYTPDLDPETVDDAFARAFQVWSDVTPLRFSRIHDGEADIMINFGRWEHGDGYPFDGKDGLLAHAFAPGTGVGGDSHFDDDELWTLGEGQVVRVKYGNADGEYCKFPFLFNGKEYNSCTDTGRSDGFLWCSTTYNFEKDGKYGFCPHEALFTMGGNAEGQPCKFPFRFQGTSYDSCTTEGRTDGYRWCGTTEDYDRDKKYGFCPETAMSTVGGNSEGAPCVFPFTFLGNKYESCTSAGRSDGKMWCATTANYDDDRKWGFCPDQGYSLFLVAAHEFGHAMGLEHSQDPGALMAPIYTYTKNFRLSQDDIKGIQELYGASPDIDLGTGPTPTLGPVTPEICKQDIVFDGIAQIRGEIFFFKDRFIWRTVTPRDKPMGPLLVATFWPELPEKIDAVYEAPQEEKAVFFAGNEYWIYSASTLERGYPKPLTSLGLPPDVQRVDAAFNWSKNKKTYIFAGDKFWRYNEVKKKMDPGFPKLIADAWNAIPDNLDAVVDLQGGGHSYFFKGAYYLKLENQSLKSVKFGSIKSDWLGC

In the case of Cc1ccc(C(=O)Nc2ccc(C(=O)N/N=C/c3cccnc3)cc2)cc1, the IC50 [1] is reported as > 100 µM (inactive), the IC50 [2] is reported as > 100 µM (inactive) and the IC50 [3] is reported as 30.5 µM (active).
With N=c1c(-c2nc3ccccc3[nH]2)cc(C(=O)c2ccco2)nn1-c1ccccc1 the IC50 [4] was 16.8 µM (active).
With Cc1cccc(NC(=O)CN2C(=O)N/C(=C/c3cc(C)n(-c4ccncc4)c3C)C2=O)c1 the AC50 [5] was 18.7 µM (active).
For CCCCn1c(CN(C)Cc2ccccc2)nc2c1c(=O)n(C)c(=O)n2C, the AC50 [6] was 2.08 µM (active), the AC50 [7] was 4.78 µM (active) and the IC50 [4] was 4.51 µM (active). For the same molecule, the AC50 [8] was 2.38 µM (active) and the AC50 [9] was 68.8 µM (active).
For COCCn1c(CN2CCC(Cc3ccccc3)CC2)nc2c1c(=O)n(C)c(=O)n2C, the IC50 [10] was 0.355 µM (active), the IC50 [11] was 0.597 µM (active) and the IC50 [4] was 2.11 µM (active).
For Cc1cc(-c2ccccc2)cc(-c2ccccc2)[n+]1C, the IC50 [4] was 5.02 µM (active).
For O=C1NC(=S)S/C1=C\c1cc(Cl)cc(Cl)c1O, the EC50 [12] was 7.19 µM (active), the CC50 [13] was 100 µM (active) and the IC50 [14] was 65.4 µM (active). For the same molecule, the IC50 [15] was 3.47 µM (active) and the IC50 [16] was 14.8 µM (active).
